Test results as given in patent publication US12364213B2, “Container for growth of cryo-sprouts” (RÄ FOODS HOLDINGS LLC, priority 2015, dated 2025).

What was measured:
Salmonella spp. = Salmonella spp. cocktail challenge on sprouts grown from soaked seeds (MPN and direct plating); type: cell-based
Description: (§1) Isolates used to inoculate cryo-sprouts were grown in pure culture and quantitated in order to determine dilutions required to achieve a target level when inoculated into the product.
(§2) The study encompassed three treatments exposed to two different temperatures over the course of 28 days, with weekly pulls, see Table 1 below.
(§3) Initial counts were determined immediately after inoculation for each treatment on Day 0, and again after incubation at 40° F. for 21 days, and 50° F. for 12 days. Subsequent pulls occurred on a weekly basis from Day 0 (after the 21 days at 40° F. or after 12 days at 50° F.) through Day 28.
(§4) The pulls occurred on Shelf Life Day 0, 7, 14, 21, and 28.
(§5) One milliliter from each of the five Salmonella cultures was combined to form a cocktail. The Listeria monocytogenes and E. coli O157:H7 cultures were similarly combined to form a second and third cocktail. These three cocktails were diluted and added to the trays containing 60 ml of deionized water.
(§6) Plastic trays with membrane were filled with 35 grams of soaked sprout seeds representing each of the three treatment groups.
(§7) Sixty milliliters of deionized water was added to each tray along with a final concentration of approximately 1.0 E+3-1.0 E+4 cfu/ml of each of the three cocktails (Salmonella and Listeria together in one set, and E. coli O157:H7 into another set).
(§8) Salmonella samples were serially diluted and spread plated on a Tryptic Soy Agar (TSA) basal layer and capped with XLD, incubated at 95° F. (35° C.) for 2 days. An MPN (Most probable number), consisting of a combination of the three samples, was also set up on each pull day due to the high number of other organisms present in the samples which obscured the direct counts.

L. monocytogenes = L. monocytogenes cocktail challenge on sprouts grown from soaked seeds (MPN and direct plating); type: cell-based, Listeria monocytogenes
Description: as §1, §2, §3, §4, §5, §6, §7
as §8, with “Listeria” for “Salmonella”, “and” for “and spread”, “TSA” for “Tryptic Soy Agar (TSA)”, “Modified Oxford Medium (MOX),” for “XLD,”, “MPN,” for “MPN (Most probable number),”

E. coli O157:H7 = E. coli O157:H7 cocktail challenge on sprouts grown from soaked seeds (MPN and direct plating); type: cell-based
Description: as §1, §2, §3, §4, §5, §6, §7
as §8, with “E. coli O157:H7” for “Salmonella”, “and” for “and spread”, “TSA” for “Tryptic Soy Agar (TSA)”, “EMB,” for “XLD,”, “MPN,” for “MPN (Most probable number),”

total aerobic bacteria = test: Aerobic Plate Count at Shelf Life Day 28 on samples grown at 40° F.; type: cell-based
Description: Aerobic Plate Counts were also analyzed at Shelf Life Day 28 on the samples grown at 40° F. by plating to Standard Methods Agar and incubated at 95° F. for 2 days to determine the total aerobic bacteria present in the samples.

[1] = test system: Salmonella, Listeria monocytogenes, and E. coli O157:H7; test: Pathogen challenge study, overall impact of soak treatments versus Control; type: cell-based; details: seed soak treatments; 40° F. and 50° F.
[2] = grown 12 days at 50° F., held at 40° F.
[3] = grown 12 days at 50° F., Shelf Life Day 0
[4] = grown 12 days at 50° F., Shelf Life Day 7 at 40° F.
[5] = grown 12 days at 50° F., Shelf Life Day 14 at 40° F.
[6] = grown 12 days at 50° F., Shelf Life Day 21 at 40° F.
[7] = grown 12 days at 50° F., Shelf Life Day 28 at 40° F.
[8] = grown 21 days at 40° F., held at 40° F. through Shelf Life Day 28, from Day 0 to below detectable limit
[9] = grown 21 days at 40° F., held at 40° F., end of study, below detectable limit
[10] = grown 21 days at 40° F., Shelf Life Day 0 at 40° F.
[11] = grown 21 days at 40° F., Shelf Life Day 7 at 40° F.
[12] = grown 21 days at 40° F., Shelf Life Day 14 at 40° F.
[13] = grown 21 days at 40° F., Shelf Life Day 21 at 40° F.
[14] = grown 21 days at 40° F., Shelf Life Day 28 at 40° F.
[15] = grown 12 days at 50° F., Shelf Life Day 28
[16] = grown 21 days at 40° F., Shelf Life Day 21
[17] = grown 21 days at 40° F., Shelf Life Day 28

SMILES: CC(=O)O [Acetic Acid, acetic acid]
- Salmonella spp. counts at each pull date via MPN and plating methods (Salmonella spp.; [2]): 1.4-3 logs
- Log10 (Salmonella MPN/g) or (CFU) (Salmonella spp.; [3]): 3.04 Log10 MPN/g
- Salmonella (MPN/g) or (CFU) (Salmonella spp.; [3]): 1,100 MPN/g
- Log10 (Salmonella MPN/g) or (CFU) (Salmonella spp.; [4]): 2.63 Log10 MPN/g
- Salmonella (MPN/g) or (CFU) (Salmonella spp.; [4]): 430 MPN/g
- Log10 (Salmonella MPN/g) or (CFU) (Salmonella spp.; [5]): 2.46 Log10 MPN/g
- Salmonella (MPN/g) or (CFU) (Salmonella spp.; [5]): 290 MPN/g
- Log10 (Salmonella MPN/g) or (CFU) (Salmonella spp.; [6]): 2.04 Log10 MPN/g
- Salmonella (MPN/g) or (CFU) (Salmonella spp.; [6]): 110 MPN/g
- Log10 (Salmonella MPN/g) or (CFU) (Salmonella spp.; [7]): 1.63 Log10 MPN/g
- Salmonella (MPN/g) or (CFU) (Salmonella spp.; [7]): 43 MPN/g
- Salmonella spp. overall log reduction (Salmonella spp.; [8]): 3.87 logs
- Salmonella spp. level, direct plating (Salmonella spp.; [9]): < 10 cfu/g
- Log10 (Salmonella MPN/g) or (CFU) (Salmonella spp.; [10]): 2.18 Log10 MPN/g
- Salmonella (MPN/g) or (CFU) (Salmonella spp.; [10]): 150 MPN/g
- Log10 (Salmonella MPN/g) or (CFU) (Salmonella spp.; [11]): 0.96 Log10 MPN/g
- Salmonella (MPN/g) or (CFU) (Salmonella spp.; [11]): 9.2 MPN/g
- Log10 (Salmonella MPN/g) or (CFU) (Salmonella spp.; [12]): <−0.5 Log10 MPN/g
- Salmonella (MPN/g) or (CFU) (Salmonella spp.; [12]): <0.3 MPN/g
- Log10 (Salmonella MPN/g) or (CFU) (Salmonella spp.; [13]): <−0.5 Log10 MPN/g
- Salmonella (MPN/g) or (CFU) (Salmonella spp.; [13]): <0.3 MPN/g
- Log10 (Salmonella MPN/g) or (CFU) (Salmonella spp.; [14]): <−0.5 Log10 MPN/g
- Salmonella (MPN/g) or (CFU) (Salmonella spp.; [14]): < 0.3 MPN/g
- Salmonella (MPN/g) or (CFU) (Salmonella spp.; grown 21 days at 40° F., Shelf Life Day 28 at 40° F., listed as Acetic): <0.3 MPN/g
- L. monocytogenes increase through Shelf Life Day 21 (L. monocytogenes; [2]): approximately 2.5 logs
- L. monocytogenes (MPN/g) or (CFU) (L. monocytogenes; [3]): > 1,100 MPN/g
- Log10 (L. monocytogenes MPN/g) or (CFU) (L. monocytogenes; [3]): 3.04 Log10 MPN/g
- L. monocytogenes (MPN/g) or (CFU) (L. monocytogenes; [4]): 24,000 MPN/g
- Log10 (L. monocytogenes MPN/g) or (CFU) (L. monocytogenes; [4]): 4.38 Log10 MPN/g
- L. monocytogenes (MPN/g) or (CFU) (L. monocytogenes; [5]): > 110,000 MPN/g
- Log10 (L. monocytogenes MPN/g) or (CFU) (L. monocytogenes; [5]): 5.04 Log10 MPN/g
- L. monocytogenes average, direct plating (L. monocytogenes; grown 12 days at 50° F., Shelf Life Day 21): 2.1 E+5 cfu/g
- L. monocytogenes (MPN/g) or (CFU) (L. monocytogenes; [6]): 2.4 E+5 MPN/g
- Log10 (L. monocytogenes MPN/g) or (CFU) (L. monocytogenes; [6]): 5.38 Log10 MPN/g
- L. monocytogenes (MPN/g) or (CFU) (L. monocytogenes; grown 12 days at 50° F., Shelf Life Day 21 at 40° F., listed as Acetic): 240,000 MPN/g
- L. monocytogenes log increase, direct plating method (L. monocytogenes; [15]): 5.14 logs
- L. monocytogenes overall log increase, MPN method (L. monocytogenes; grown 12 days at 50° F., Shelf Life Day 28, from inoculated controls): 1.82 logs
- L. monocytogenes direct counts, avg. log value (L. monocytogenes; grown 12 days at 50° F., Shelf Life Day 28, obscured by background flora, possible overestimation): 7.95
- L. monocytogenes (MPN/g) or (CFU) (L. monocytogenes; [7]): 43,000 MPN/g
- Log10 (L. monocytogenes MPN/g) or (CFU) (L. monocytogenes; [7]): 4.63 Log10 MPN/g
- L. monocytogenes (MPN/g) or (CFU) (L. monocytogenes; [10]): 230 MPN/g
- Log10 (L. monocytogenes MPN/g) or (CFU) (L. monocytogenes; [10]): 2.36 Log10 MPN/g
- L. monocytogenes (MPN/g) or (CFU) (L. monocytogenes; [11]): 4.3 MPN/g
- Log10 (L. monocytogenes MPN/g) or (CFU) (L. monocytogenes; [11]): 0.63 Log10 MPN/g
- L. monocytogenes log increase, direct plating (L. monocytogenes; grown 21 days at 40° F., Shelf Life Day 14): 1.33 logs
- L. monocytogenes direct plating counts, average (L. monocytogenes; grown 21 days at 40° F., Shelf Life Day 14, 21, and 28): approximately 4 logs
- L. monocytogenes (MPN/g) or (CFU) (L. monocytogenes; [12]): > 1,100 MPN/g
- Log10 (L. monocytogenes MPN/g) or (CFU) (L. monocytogenes; [12]): 3.04 Log10 MPN/g
- L. monocytogenes direct plating count (L. monocytogenes; [16]): 4.04 logs
- L. monocytogenes log increase, direct plating (L. monocytogenes; [16]): 1.23 logs
- L. monocytogenes (MPN/g) or (CFU) (L. monocytogenes; [13]): 930 MPN/g
- Log10 (L. monocytogenes MPN/g) or (CFU) (L. monocytogenes; [13]): 2.97 Log10 MPN/g
- L. monocytogenes direct count log value (L. monocytogenes; [17]): 4.50 logs
- L. monocytogenes log increase, direct plating (L. monocytogenes; [17]): 1.69 logs
- L. monocytogenes overall log increase, MPN method (L. monocytogenes; [17]): > 0.23 logs
- L. monocytogenes (MPN/g) or (CFU) (L. monocytogenes; [14]): > 1,100 MPN/g
- Log10 (L. monocytogenes MPN/g) or (CFU) (L. monocytogenes; [14]): 3.04 Log10 MPN/g
- E. coli O157:H7 avg. log values for each pull day (E. coli O157:H7; [2]): 3-5 logs
- E. coli O157:H7 (MPN/mL) or (CFU) (E. coli O157:H7; [3]): 1,100 MPN/mL
- Log10 (E. coli O157:H7 MPN/g) or (CFU) (E. coli O157:H7; [3]): 3.04 Log10 MPN/g
- E. coli O157:H7 (MPN/mL) or (CFU) (E. coli O157:H7; [4]): 110,000 MPN/mL
- Log10 (E. coli O157:H7 MPN/g) or (CFU) (E. coli O157:H7; [4]): 5.04 Log10 MPN/g
- E. coli O157:H7 (MPN/mL) or (CFU) (E. coli O157:H7; [5]): 46,000 MPN/mL
- Log10 (E. coli O157:H7 MPN/g) or (CFU) (E. coli O157:H7; [5]): 4.66 Log10 MPN/g
- E. coli O157:H7 (MPN/mL) or (CFU) (E. coli O157:H7; [6]): 930 MPN/mL
- Log10 (E. coli O157:H7 MPN/g) or (CFU) (E. coli O157:H7; [6]): 2.97 Log10 MPN/g
- E. coli O157:H7 level, MPN method (E. coli O157:H7; [15]): 2,400 MPN/g
- E. coli O157:H7 overall log reduction, MPN method (E. coli O157:H7; grown 12 days at 50° F., Shelf Life Day 28, from Day 0 inoculated control): 1.73 logs
- E. coli O157:H7 (MPN/mL) or (CFU) (E. coli O157:H7; [7]): 2,400 MPN/mL
- Log10 (E. coli O157:H7 MPN/g) or (CFU) (E. coli O157:H7; [7]): 3.38 Log10 MPN/g
- E. coli O157:H7 overall log reduction (E. coli O157:H7; [8]): 4.16 logs
- E. coli O157:H7 level, MPN (E. coli O157:H7; [9]): < 0.3 MPN/g
- E. coli O157:H7 level, direct plating (E. coli O157:H7; [9]): < 10 cfu/g
- E. coli O157:H7 (MPN/mL) or (CFU) (E. coli O157:H7; [10]): <30 MPN/mL
- Log10 (E. coli O157:H7 MPN/g) or (CFU) (E. coli O157:H7; [10]): 0.95 Log10 MPN/g
- E. coli O157:H7 (MPN/mL) or (CFU) (E. coli O157:H7; [11]): 9.3 MPN/mL
- Log10 (E. coli O157:H7 MPN/g) or (CFU) (E. coli O157:H7; [11]): 0.97 Log10 MPN/g
- E. coli O157:H7 (MPN/mL) or (CFU) (E. coli O157:H7; [12]): 0.30 MPN/mL
- Log10 (E. coli O157:H7 MPN/g) or (CFU) (E. coli O157:H7; [12]): −0.5 Log10 MPN/g
- E. coli O157:H7 (MPN/mL) or (CFU) (E. coli O157:H7; [13]): <0.3 MPN/mL
- Log10 (E. coli O157:H7 MPN/g) or (CFU) (E. coli O157:H7; [13]): <−0.5 Log10 MPN/g
- E. coli O157:H7 (MPN/mL) or (CFU) (E. coli O157:H7; [14]): <0.3 MPN/mL
- Log10 (E. coli O157:H7 MPN/g) or (CFU) (E. coli O157:H7; [14]): <−0.5 Log10 MPN/g
- Aerobic Plate Count, average (total aerobic bacteria): 8.1 E+8 cfu/g
- Aerobic Plate Count, avg. log value (total aerobic bacteria): 8.91
- impact on the counts in comparison to the Control treatment [1]: did not appear to have a significant impact
